System: RAN translation
Assay: RAN translation inhibitory activity (poly-GP level by electrochemiluminescence)
Assay type: cell-based, human
Details: two days after addition, poly-GP level vs DMSO; for inhibition at 1 µM / inhibition at 3 µM / inhibition at 10 µM: Homo sapiens, 48 h
Description: Next, the effect of the compound used in the present invention on RAN translation was examined. Among the DPRs generated by RAN translation, the poly-GP level was measured by an electrochemiluminescence system (Meso Scale Diagnostics).
ALS7 (C9orf72) cells were seeded on an assay plate in the same procedure as in Experimental Example 1. Four days after seeding, the assay medium containing no Y-27632 was added to the plate, and the cells were cultured until seven days after seeding, and the assay medium (Retinoic Acid, Doxycycline, SAG, Y-27632-free) containing the test compound at a predetermined concentration was added to the plate by medium exchange. Two days after addition of the test compound, the medium was removed, and the cells were lysed in an urea buffer consisting of 8M Urea (Wako, 219-00175), 4% CHAPS (Dojindo, 349-04722) and 30 mM Tris-HCl (pH 8.0, Nippon Gene, 312-90061). The cell lysate was added to a multi-array 384 well plate (Meso Scale Diagnostics, L21XB-4), and the plate was agitated at 700 rpm with a plate shaker (Azwan, DM-301) at room temperature, and then allowed to stand overnight at 4° C. The cell lysate was removed, a blocking buffer consisting of 5% Blocker A (Meso Scale Diagnostics, R93AA-1) and 1×TBS-T {TBS (Bio-Rad, 170-6435) containing 0.05% Tween-20 (Bio-Rad, 170-6531)} was added to the plate, and the plate was agitated at 700 rpm with a plate shaker for 1 hr at room temperature, and then washed three times with a wash buffer consisting of 0.05% Tween-20 and PBS (Wako, 162-18547). C9RANT antibody (Novus Biologicals, NBP2-25018) diluted 10,000-fold with 1×TBS-T containing 1% Blocker A was added to the plate, and the plate was agitated at 700 rpm with a plate shaker for 2 hr at 4° C., and then allowed to stand overnight at 4° C. After washing three times with the wash buffer, SULFO-TAG Goat Anti-Rabbit Antibody (Meso Scale Diagnostics, R32AB-1) diluted 500-fold with 1×TBS-T containing 1% Blocker A was added to the plate, and the plate was agitated at 700 rpm with a plate shaker for 2 hr at room temperature. After washing three times with the wash buffer, 2×MSD Read Buffer T with Surfactant (Meso Scale Diagnostics, R92TC-1) was added to the plate, and the signal derived from the C9RANT antibody was measured by MESO SECTOR S600 (Meso Scale Diagnostics).
The method for detecting the activity of the test compound is as follows.
As a negative control, the cells cultured in the assay medium supplemented with DMSO instead of the test compound were used.
RAN translation inhibitory activity of the test compound=100−X/C×100
X: poly-GP level in the test compound group, C: poly-GP level in the DMSO group

COc1cc(F)ccc1-c1ncnc(Nc2cccc(CS(C)(=N)=O)c2)n1 (centres unmarked) [Compound No. 1, 4-(4-fluoro-2-methoxyphenyl)-N-{3-[(S-methanesulfonimidoyl)methyl]phenyl}-1,3,5-triazin-2-amine]
inhibition at 1 µM (1 μM test compound): 1% | inhibition at 3 µM (3 μM test compound): 19% | inhibition at 10 µM (10 μM test compound): 18%

COc1ccccc1-c1ncnc(Nc2cccc(CS(N)(=O)=O)c2)n1 [Compound No. 2, 1-(3-{[4-(2-methoxyphenyl)-1,3,5-triazin-2-yl]amino}phenyl)methanesulfonamide]
inhibition at 1 µM (1 μM test compound): > 1% | inhibition at 3 µM (3 μM test compound): 6% | inhibition at 10 µM (10 μM test compound): 15%

COc1cc(Cl)ccc1-c1ncnc(Nc2cccc(CS(N)(=O)=O)c2)n1 [Compound No. 3, 1-(3-{[4-(4-chloro-2-methoxyphenyl)-1,3,5-triazin-2-yl]amino}phenyl)methanesulfonamide]
inhibition at 1 µM (1 μM test compound): > 1% | inhibition at 3 µM (3 μM test compound): 1% | inhibition at 10 µM (10 μM test compound): 4%

NS(=O)(=O)Cc1cccc(Nc2ncnc(-c3ccccc3OCc3ccccc3)n2)c1.O=C(O)C(F)(F)F [Compound No. 4a, 1-[3-({4-[2-(benzyloxy)phenyl]-1,3,5-triazin-2-yl}amino)phenyl]methanesulfonamide trifluoroacetate]
RAN translation inhibitory activity % (1 μM test compound): 5% | RAN translation inhibitory activity % (10 μM test compound): 3% | inhibition at 3 µM (3 μM test compound): 11%

NS(=O)(=O)Cc1cccc(Nc2ncnc(-c3ccccc3OCc3ccccc3)n2)c1 [Compound No. 4b, 1-[3-({4-[2-(benzyloxy)phenyl]-1,3,5-triazin-2-yl}amino)phenyl]methanesulfonamide]
RAN translation inhibitory activity % (1 μM test compound): 11% | RAN translation inhibitory activity % (3 μM test compound): 17% | RAN translation inhibitory activity % (10 μM test compound): 17%

CS(=N)(=O)Cc1cccc(Nc2ncnc(-c3ccccc3OCc3ccc(Cl)c(Cl)c3)n2)c1 (centres unmarked) [Compound No. 5, 4-{2-[(3,4-dichlorophenyl)methoxy]phenyl}-N-{3-[(S-methanesulfonimidoyl)methyl]phenyl}-1,3,5-triazin-2-amine]
inhibition at 1 µM (1 μM test compound): 19% | inhibition at 3 µM (3 μM test compound): 16% | inhibition at 10 µM (10 μM test compound): 21%

CCOC(=O)N=S(C)(=O)Cc1cccc(Nc2ncnc(-c3cccc4c3OCCO4)n2)c1 (centres unmarked) [Compound No. 6, ethyl {[(3-{[4-(2,3-dihydro-1,4-benzodioxin-5-yl)-1,3,5-triazin-2-yl]amino}phenyl)methyl](methyl)oxo-λ^6-sulfanylidene}carbamate]
inhibition at 1 µM (1 μM test compound): 16% | inhibition at 10 µM (10 μM test compound): 21%

CCOC(=O)N=S(C)(=O)Cc1cccc(Nc2ncnc(-c3cccc4c3OCC4)n2)c1 (centres unmarked) [Compound No. 7, ethyl {[(3-{[4-(2,3-dihydro-1-benzofuran-7-yl)-1,3,5-triazin-2-yl]amino}phenyl)methyl](methyl)oxo-λ^6-sulfanylidene}carbamate]
inhibition at 1 µM (1 μM test compound): 4% | inhibition at 3 µM (3 μM test compound): 19% | inhibition at 10 µM (10 μM test compound): 17%

Reference: patent US20230120205A1, “NERVE CELL DEGENERATION INHIBITOR” (KYOTO UNIVERSITY, priority 2020, published 2023)
